Results reported in publication doi:10.1101/2024.08.19.608619, “Discovery of potent SARS-CoV-2 nsp3 macrodomain inhibitors uncovers lack of translation to cellular antiviral response” (bioRxiv, 2024).
Like-named read-outs stand apart in the source and are kept apart here.

Key:
[1] = target: CDK6/cyclinD3(h) (Homo sapiens, UniProt Q00534); assay: biochemical; set-up: In vitro kinase panel profiling, per cent remaining kinase activity at 10 uM; settings: atp_concentration=200, read-out: % of control remaining
Source text: (§1) We derisk potential for off-target activity by profiling the compound in a CEREP panel, a standard secondary pharmacology assessment, as well as a kinase panel to derisk a potential hinge-binding motif in our leads, and a PARP panel to derisk activity against human […]. Reassuringly, the compounds are selective, with the only off-targets being moderate human CHRM2 and KOR receptors activity associated with ASAP-0011198.

[2] = target: T1, PKCα(h) (Homo sapiens, UniProt P17252); assay: biochemical; set-up: In vitro kinase panel profiling, per cent remaining kinase activity at 10 uM; settings: atp_concentration=45, read-out: % of control remaining
T1 construct: gene PRKCA
Source text: as §1

[3] = target: T2, PKCθ(h) (Homo sapiens, UniProt Q04759); assay: biochemical; set-up: In vitro kinase panel profiling, per cent remaining kinase activity at 10 uM; settings: atp_concentration=15, read-out: % of control remaining
T2 construct: gene PRKCQ
Source text: as §1

[4] = target: T3, MAPKAP-K2(h) (Homo sapiens, UniProt P49137); assay: biochemical; set-up: In vitro kinase panel profiling, per cent remaining kinase activity at 10 uM; settings: atp_concentration=90, read-out: % of control remaining
T3 construct: gene MAPKAPK2
Source text: as §1

[5] = target: T4, PDE4D2 (h) (Homo sapiens, UniProt Q08499); assay: In vitro CEREP profiling, PDE4D2 (h); type: biochemical; settings: test compound concentration 10 uM, Enzyme and Cell-based assays; for inhibition at 10 µM: read-out: perc_inhibition: % inhibition of control enzyme activity, PDE4D2 (h)
T4 construct: purchased Eurofins Cerep (SafetyScreen44), recognised from the panel format
Source text: (§2) Supplement media-1.zip/Safety_Panel_Profile.csv, table | column: perc_inhibition

[6] = target: T5, GR (h) (Homo sapiens, UniProt P04150); assay: In vitro CEREP profiling, GR (h) (agonist radioligand); type: binding; settings: test compound concentration 10 uM; for inhibition at 10 µM: read-out: perc_inhibition, % inhibition of the binding of a ligand specific for each target
T5 construct: purchased Eurofins Cerep (SafetyScreen44), recognised from the panel format
T5 sequence (P04150 1-777): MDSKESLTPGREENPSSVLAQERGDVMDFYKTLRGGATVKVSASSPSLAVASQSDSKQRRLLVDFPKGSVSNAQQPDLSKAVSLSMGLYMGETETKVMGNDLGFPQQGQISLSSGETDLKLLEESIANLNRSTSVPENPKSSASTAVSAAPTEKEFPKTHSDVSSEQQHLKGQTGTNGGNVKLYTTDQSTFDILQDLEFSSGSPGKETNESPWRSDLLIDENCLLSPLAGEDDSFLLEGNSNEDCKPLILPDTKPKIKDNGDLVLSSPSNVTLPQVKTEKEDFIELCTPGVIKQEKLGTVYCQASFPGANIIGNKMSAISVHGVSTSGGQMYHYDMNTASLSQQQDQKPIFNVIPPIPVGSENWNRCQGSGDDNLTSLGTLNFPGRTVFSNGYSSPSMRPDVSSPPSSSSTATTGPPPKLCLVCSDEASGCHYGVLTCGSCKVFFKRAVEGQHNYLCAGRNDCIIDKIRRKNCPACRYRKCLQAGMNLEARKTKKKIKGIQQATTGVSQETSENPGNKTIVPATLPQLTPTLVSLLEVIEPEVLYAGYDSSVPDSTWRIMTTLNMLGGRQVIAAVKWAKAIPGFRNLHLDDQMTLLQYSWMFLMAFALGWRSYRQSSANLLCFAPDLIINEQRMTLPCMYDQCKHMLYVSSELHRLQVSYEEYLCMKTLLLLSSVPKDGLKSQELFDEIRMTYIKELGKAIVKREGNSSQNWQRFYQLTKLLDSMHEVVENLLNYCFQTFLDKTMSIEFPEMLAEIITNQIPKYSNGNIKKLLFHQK
Source text: as §2

T3 sequence (P49137 whole entry): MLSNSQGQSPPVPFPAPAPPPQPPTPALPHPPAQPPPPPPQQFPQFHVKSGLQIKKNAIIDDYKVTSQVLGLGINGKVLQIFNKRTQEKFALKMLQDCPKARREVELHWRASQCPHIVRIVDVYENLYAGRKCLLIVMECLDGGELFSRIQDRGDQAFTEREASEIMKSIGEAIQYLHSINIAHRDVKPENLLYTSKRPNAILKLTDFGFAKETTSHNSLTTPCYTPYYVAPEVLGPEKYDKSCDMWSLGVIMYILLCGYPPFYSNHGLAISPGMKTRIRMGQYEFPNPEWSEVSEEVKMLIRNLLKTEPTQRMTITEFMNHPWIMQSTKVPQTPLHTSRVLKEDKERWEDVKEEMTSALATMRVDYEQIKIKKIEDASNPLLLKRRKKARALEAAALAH
T4 sequence (Q08499 303-809): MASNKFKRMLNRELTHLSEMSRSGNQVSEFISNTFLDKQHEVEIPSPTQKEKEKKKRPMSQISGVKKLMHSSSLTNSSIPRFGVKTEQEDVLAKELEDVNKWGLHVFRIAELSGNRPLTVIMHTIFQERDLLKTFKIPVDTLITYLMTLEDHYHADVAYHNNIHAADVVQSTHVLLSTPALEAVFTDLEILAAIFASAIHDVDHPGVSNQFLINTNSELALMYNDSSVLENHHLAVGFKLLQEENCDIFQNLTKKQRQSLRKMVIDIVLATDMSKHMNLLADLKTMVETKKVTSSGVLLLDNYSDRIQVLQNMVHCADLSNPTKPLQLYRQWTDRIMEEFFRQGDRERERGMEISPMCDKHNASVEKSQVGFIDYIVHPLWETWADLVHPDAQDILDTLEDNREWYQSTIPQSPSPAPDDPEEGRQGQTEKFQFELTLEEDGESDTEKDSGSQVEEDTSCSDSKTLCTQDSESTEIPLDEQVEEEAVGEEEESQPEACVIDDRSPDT
T2 sequence (Q04759 whole entry): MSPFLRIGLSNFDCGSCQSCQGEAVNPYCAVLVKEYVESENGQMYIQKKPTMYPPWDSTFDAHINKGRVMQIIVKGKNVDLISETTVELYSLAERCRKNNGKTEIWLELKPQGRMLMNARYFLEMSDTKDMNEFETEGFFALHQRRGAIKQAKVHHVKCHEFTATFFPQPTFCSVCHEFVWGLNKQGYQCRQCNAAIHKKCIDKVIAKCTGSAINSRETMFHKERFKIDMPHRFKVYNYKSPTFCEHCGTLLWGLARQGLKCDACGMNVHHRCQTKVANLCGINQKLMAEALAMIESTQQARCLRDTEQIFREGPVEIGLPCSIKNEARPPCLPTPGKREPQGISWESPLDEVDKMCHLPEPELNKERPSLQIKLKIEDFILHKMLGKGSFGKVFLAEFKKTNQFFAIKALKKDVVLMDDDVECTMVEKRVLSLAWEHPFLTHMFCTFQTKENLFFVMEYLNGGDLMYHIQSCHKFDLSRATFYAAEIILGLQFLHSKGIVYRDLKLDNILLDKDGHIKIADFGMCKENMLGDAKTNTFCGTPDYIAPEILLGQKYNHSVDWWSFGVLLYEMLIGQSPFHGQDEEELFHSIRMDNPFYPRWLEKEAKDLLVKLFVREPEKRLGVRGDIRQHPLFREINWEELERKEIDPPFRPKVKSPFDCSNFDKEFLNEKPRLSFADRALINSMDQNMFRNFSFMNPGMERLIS
Chain of CDK6/cyclinD3(h) (Q00534 whole entry): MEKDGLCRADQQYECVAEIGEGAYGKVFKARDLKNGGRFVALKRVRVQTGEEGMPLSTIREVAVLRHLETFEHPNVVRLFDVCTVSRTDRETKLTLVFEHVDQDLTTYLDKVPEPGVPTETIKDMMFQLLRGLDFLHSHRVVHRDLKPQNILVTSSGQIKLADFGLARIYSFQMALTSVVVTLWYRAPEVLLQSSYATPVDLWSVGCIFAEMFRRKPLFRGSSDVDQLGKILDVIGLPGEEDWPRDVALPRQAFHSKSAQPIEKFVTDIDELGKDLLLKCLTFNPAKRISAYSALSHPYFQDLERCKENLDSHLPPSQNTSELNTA
Chain of CDK6/cyclinD3(h) (P30281 whole entry partner): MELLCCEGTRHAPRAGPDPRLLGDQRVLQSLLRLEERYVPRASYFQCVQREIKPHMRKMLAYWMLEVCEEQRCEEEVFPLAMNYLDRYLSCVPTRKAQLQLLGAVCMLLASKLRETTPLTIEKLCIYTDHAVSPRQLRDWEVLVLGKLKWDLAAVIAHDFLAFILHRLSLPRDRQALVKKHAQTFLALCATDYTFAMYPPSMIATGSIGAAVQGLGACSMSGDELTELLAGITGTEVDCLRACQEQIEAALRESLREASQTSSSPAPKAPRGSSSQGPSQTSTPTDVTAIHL

CC(C)[C@H](Nc1ncnc2[nH]ccc12)c1ccc2c(c1)S(=O)(=O)CCC2 [ASAP-0008674]
remaining activity at 10 µM ([1]; batch_name=ASAP-0008674-002): 105% | remaining activity at 10 µM ([2]; batch_name=ASAP-0008674-002): 98% | remaining activity at 10 µM ([3]; batch_name=ASAP-0008674-002): 88% | remaining activity at 10 µM ([4]; batch_name=ASAP-0008674-002): 106% | perc_inhibition: % inhibition of control enzyme activity, PDE4D2 (h) [5]: 36% | perc_inhibition (% inhibition of the binding of a ligand specific for each target) [6]: 10%

Cc1nn(C)cc1-c1cc2c(NC(c3ccc4c(c3)S(=O)(=O)CCC4)C(C)C)ncnc2[nH]1 (stereo not shown) [ASAP-0011446]
remaining activity at 10 µM ([1]; batch_name=ASAP-0011446-002): 106% | remaining activity at 10 µM ([2]; batch_name=ASAP-0011446-002): 93% | remaining activity at 10 µM ([3]; batch_name=ASAP-0011446-002): 106% | remaining activity at 10 µM ([4]; batch_name=ASAP-0011446-002): 110% | inhibition at 10 µM [5]: 43% | inhibition at 10 µM [6]: 7%

CC(C)[C@@H](Nc1ncnc2[nH]c(-c3cnn(C)c3C#N)cc12)c1ccc2c(n1)OCCO2 [ASAP-0008418]
remaining activity at 10 µM ([1]; batch_name=ASAP-0008418-001): 105% | remaining activity at 10 µM ([2]; batch_name=ASAP-0008418-001): 90% | remaining activity at 10 µM ([3]; batch_name=ASAP-0008418-001): 93%

CC(C)C(Nc1ncnc2[nH]ccc12)c1ccc2c(c1)S(=O)(=O)CCC2 (stereo not shown) [ASAP-0008327]
remaining activity at 10 µM ([1]; batch_name=ASAP-0008327-001): 99% | remaining activity at 10 µM ([2]; batch_name=ASAP-0008327-001): 104% | remaining activity at 10 µM ([3]; batch_name=ASAP-0008327-001): 101% | remaining activity at 10 µM ([4]; batch_name=ASAP-0008327-001): 105%

CC(C)[C@H](Nc1ncnc2[nH]c(-c3cnn(C)c3C#N)cc12)c1ccc2c(n1)OCCO2 [ASAP-0010715]
remaining activity at 10 µM ([1]; batch_name=ASAP-0010715-002): 102% | remaining activity at 10 µM ([4]; batch_name=ASAP-0010715-002): 115% | perc_inhibition: % inhibition of control enzyme activity, PDE4D2 (h) [5]: 70% | perc_inhibition (% inhibition of the binding of a ligand specific for each target) [6]: 11%

CC(C)[C@@H](Nc1ncnc2[nH]c(-c3cnn(C)c3C#N)cc12)c1ccc2c(n1)OCCO2 [ASAP-0010716]
remaining activity at 10 µM ([2]; batch_name=ASAP-0010716-002): 99% | remaining activity at 10 µM ([3]; batch_name=ASAP-0010716-002): 111% | remaining activity at 10 µM ([4]; batch_name=ASAP-0010716-002): 114% | perc_inhibition: % inhibition of control enzyme activity, PDE4D2 (h) [5]: 44% | perc_inhibition (% inhibition of the binding of a ligand specific for each target) [6]: 22%

CC(C)C(Nc1ncnc2[nH]c(C(=O)NC3CCN(C)C3)cc12)c1ccc2c(c1)S(=O)(=O)CCC2 (stereo not shown) [ASAP-0011198]
remaining activity at 10 µM ([1]; batch_name=ASAP-0011198-002): 99% | remaining activity at 10 µM ([2]; batch_name=ASAP-0011198-002): 101% | remaining activity at 10 µM ([3]; batch_name=ASAP-0011198-002): 102% | remaining activity at 10 µM ([4]; batch_name=ASAP-0011198-002): 108% | inhibition at 10 µM [5]: 37% | inhibition at 10 µM [6]: 11%

COc1ccc([C@H](Cc2nnn[nH]2)NC(=O)c2ncnc3[nH]ccc23)cc1 [ASAP-0015381]
remaining activity at 10 µM ([1]; batch_name=ASAP-0015381-001): 102% | remaining activity at 10 µM ([2]; batch_name=ASAP-0015381-001): 93% | remaining activity at 10 µM ([3]; batch_name=ASAP-0015381-001): 91% | remaining activity at 10 µM ([4]; batch_name=ASAP-0015381-001): 102% | perc_inhibition: % inhibition of control enzyme activity, PDE4D2 (h) [5]: 41% | perc_inhibition (% inhibition of the binding of a ligand specific for each target) [6]: 1%

COc1ccc([C@@H](Cc2nnn[nH]2)NC(=O)c2ncnc3[nH]ccc23)cc1 [ASAP-0008340]
remaining activity at 10 µM ([1]; batch_name=ASAP-0008340-001): 100% | remaining activity at 10 µM ([2]; batch_name=ASAP-0008340-001): 95% | remaining activity at 10 µM ([3]; batch_name=ASAP-0008340-001): 90% | remaining activity at 10 µM ([4]; batch_name=ASAP-0008340-001): 92%

CNCc1cc(-c2cc3c(N[C@@H](c4ccc5c(c4)S(=O)(=O)CCC5)C(C)C)ncnc3[nH]2)co1 [ASAP-0011176]
remaining activity at 10 µM ([1]; batch_name=ASAP-0011176-002): 92% | remaining activity at 10 µM ([2]; batch_name=ASAP-0011176-002): 99% | remaining activity at 10 µM ([3]; batch_name=ASAP-0011176-002): 106% | remaining activity at 10 µM ([4]; batch_name=ASAP-0011176-002): 106% | perc_inhibition: % inhibition of control enzyme activity, PDE4D2 (h) [5]: 43% | perc_inhibition (% inhibition of the binding of a ligand specific for each target) [6]: 21%

Cn1ncc(-c2cc3c(N[C@@H](c4ccc5c(n4)OCCO5)C(C)(C)C)ncnc3[nH]2)c1C#N [ASAP-0011221]
remaining activity at 10 µM ([2]; batch_name=ASAP-0011221-002): 87% | remaining activity at 10 µM ([3]; batch_name=ASAP-0011221-002): 96% | remaining activity at 10 µM ([4]; batch_name=ASAP-0011221-002): 110% | perc_inhibition: % inhibition of control enzyme activity, PDE4D2 (h) [5]: 20% | perc_inhibition (% inhibition of the binding of a ligand specific for each target) [6]: 28%

C[C@H](C(=O)O)[C@@H](NC(=O)c1ncnc2[nH]ccc12)c1ccc(Br)cc1 [ASAP-0014722]
remaining activity at 10 µM ([1]; batch_name=ASAP-0014722-002): 97% | remaining activity at 10 µM ([2]; batch_name=ASAP-0014722-002): 108% | remaining activity at 10 µM ([3]; batch_name=ASAP-0014722-002): 100% | remaining activity at 10 µM ([4]; batch_name=ASAP-0014722-002): 98% | perc_inhibition: % inhibition of control enzyme activity, PDE4D2 (h) [5]: 30% | perc_inhibition (% inhibition of the binding of a ligand specific for each target) [6]: 3%
